Legend:
[1] = Stability of compounds in simulated gastric fluid (SGF); format: in vitro ADME; conditions: simulated gastric fluid (3 mg/mL pepsin), incubation time 6 hr, relative to t=0
In short: (§1)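 Compounds at […] were incubated 3 or 6 hr in USP simulated gastric fluid with 3 mg/mL pepsin or simulated intestinal fluid with 3 mg/mL pancreatin. Remaining compound was quantified by HPLC-UV or HPLC-MS peak area % and reported as percent of the t=0 level in the same medium.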

[2] = molecular target: T1, rat NaP2b (SLC34A2) (Rattus norvegicus, UniProt Q9JJ09); test: Inhibition of NaP2b-mediated Pi (33P) uptake in transfected HEK293 cells, rat NaP2b; format: cell-based; conditions: 33P Pi uptake, 0.1 mM phosphate, value given as pIC50 range
T1 construct: host or cells: HEK293
T1 sequence (Q9JJ09 1-695): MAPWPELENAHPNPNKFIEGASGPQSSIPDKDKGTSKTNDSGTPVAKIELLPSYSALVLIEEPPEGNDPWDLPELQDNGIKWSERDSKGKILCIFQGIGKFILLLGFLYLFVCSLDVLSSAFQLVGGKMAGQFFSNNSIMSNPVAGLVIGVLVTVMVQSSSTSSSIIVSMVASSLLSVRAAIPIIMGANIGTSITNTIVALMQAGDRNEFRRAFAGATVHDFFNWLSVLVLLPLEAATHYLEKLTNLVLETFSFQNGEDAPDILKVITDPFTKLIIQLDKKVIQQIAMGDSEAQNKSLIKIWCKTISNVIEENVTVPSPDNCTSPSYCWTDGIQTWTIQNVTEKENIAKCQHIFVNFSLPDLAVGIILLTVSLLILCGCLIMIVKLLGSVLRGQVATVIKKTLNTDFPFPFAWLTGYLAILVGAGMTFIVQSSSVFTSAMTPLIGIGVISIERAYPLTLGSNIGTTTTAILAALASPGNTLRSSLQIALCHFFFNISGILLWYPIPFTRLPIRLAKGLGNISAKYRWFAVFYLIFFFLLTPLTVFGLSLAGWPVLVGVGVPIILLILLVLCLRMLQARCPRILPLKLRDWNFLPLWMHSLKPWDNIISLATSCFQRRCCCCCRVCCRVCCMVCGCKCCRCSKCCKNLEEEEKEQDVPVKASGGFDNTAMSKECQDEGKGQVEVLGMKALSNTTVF
In short: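 HEK293 cells were transiently transfected with NaP2b cDNA using Lipofectamine and grown near confluence. Compounds were tested at twelve concentrations from 0.1 nM to 30 uM in duplicate, and 33P-phosphate uptake was counted by scintillation after lysis. Results are expressed as pIC50.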

[3] = Stability of compounds in simulated intestinal fluid (SIF); format: in vitro ADME; conditions: simulated intestinal fluid (3 mg/mL pancreatin), incubation time 6 hr, relative to t=0
In short: as §1

[4] = system: Uptake of Phosphorus from the Intestine; test: In vivo co-dosing in chow (urine P out / P consumed); conditions: Rattus norvegicus, feed or water, rats, compound in chow, read-out: Mean % inhibition Urine Pout/P consumed
Description: Male, 7-week-old Sprague-Dawley rats (Charles-River laboratories international, Hollister, Calif.) were allowed to acclimate for a minimum of 3 days. The experiment was initiated by switching animals to a synthetic diet (0.6% phosphorus and 0.6% calcium, Harlan Teklad TD.84122) for four days. After this time, the animals were placed into metabolic cages for daily monitoring of food and water consumption, as well as urine and fecal collections. Test compounds were incorporated into the powdered diet listed above containing 3% chocolate flavoring (w/w, BioServ #7345) at 1.3 mg test compound per gram of diet to achieve an average daily nominal dose of 100 mg/kg/day. The actual dose received by each animal was later determined by measuring prepared diet consumption and body weight. Urine samples were collected in three daily periods from 24-48, 48-72, and 72-96 hours of drug dosing. Averaging these three 24 h periods allows for the more representative measurements of urination, fecal excretion, food consumption and water uptake for each animal. Phosphorus levels in the urine were determined by anion exchange chromatography using a Dionex ICS-3000 ion chromatography system. Urine samples were diluted 1:500 or 1:1000 and injected onto an IonPac AS18 analytical column (2×250 mm) using a potassium hydroxide eluent. Elution of urine phosphate ions was monitored via conductivity detector and reported as ppm relative to a standard ion solution containing phosphate. Daily urinary P output relative to the P consumed in the prepared diet for each animal was calculated. The percentage inhibition of phosphorus absorption was estimated by determining the reduction of this ratio compared to the control group (animals with no drug in chow). The differences between the means of control and treated groups were evaluated by t tests. In all experiments, one group was always included that had Renvela powder blended into their chow at 0.9% targeting a dose of 750 mg/kg.

[5] = Determination of compound Cmax and AUC after oral gavage (plasma LC-MS/MS); format: in vivo, Sprague-Dawley rats; conditions: Sprague-Dawley, rat, plasma, po, Structure (I) examples
In short: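 Sprague-Dawley rats dosed by oral gavage at nominal 2.5 or 10 mg/kg; blood drawn at 0.5, 1, 2 and 4 h into K2EDTA. Plasma protein-precipitated with acetonitrile plus internal standard and analysed by LC-MS/MS against a plasma standard curve to derive Cmax and AUC.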

[6] = molecular target: T2, human NaP2b (SLC34A2) (Homo sapiens, UniProt O95436); test: Inhibition of NaP2b-mediated Pi (33P) uptake in transfected HEK293 cells, human NaP2b; format: cell-based; conditions: read-out: pIC50 range for human NaP2b (converted)
T2 construct: host or cells: HEK293
T2 sequence (O95436 1-690): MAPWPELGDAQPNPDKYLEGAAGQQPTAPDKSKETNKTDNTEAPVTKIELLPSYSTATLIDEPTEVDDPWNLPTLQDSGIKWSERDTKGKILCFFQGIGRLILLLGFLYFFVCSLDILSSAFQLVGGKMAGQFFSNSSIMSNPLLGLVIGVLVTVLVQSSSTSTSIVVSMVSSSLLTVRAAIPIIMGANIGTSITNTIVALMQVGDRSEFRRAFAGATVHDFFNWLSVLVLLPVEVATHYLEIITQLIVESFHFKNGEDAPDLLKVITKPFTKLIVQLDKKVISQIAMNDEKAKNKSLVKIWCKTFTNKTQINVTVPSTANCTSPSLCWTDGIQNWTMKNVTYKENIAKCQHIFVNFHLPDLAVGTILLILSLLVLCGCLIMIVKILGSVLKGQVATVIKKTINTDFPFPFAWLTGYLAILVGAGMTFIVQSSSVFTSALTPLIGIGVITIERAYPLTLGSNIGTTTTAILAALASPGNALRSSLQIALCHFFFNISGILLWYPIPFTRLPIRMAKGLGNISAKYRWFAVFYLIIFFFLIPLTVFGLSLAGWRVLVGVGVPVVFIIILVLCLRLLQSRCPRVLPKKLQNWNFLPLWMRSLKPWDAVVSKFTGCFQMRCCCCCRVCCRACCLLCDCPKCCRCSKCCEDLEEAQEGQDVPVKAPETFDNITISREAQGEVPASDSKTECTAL
In short: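 HEK293 cells transiently transfected with human NaP2b (Thr inserted after residue 37, N39D), endogenous PiT transport pharmacologically silenced. Sodium or choline buffer, pH 7.4, with 100 uM KH2PO4, 33P orthophosphate and compound (0.1 nM–30 uM, twelve concentrations, duplicate). 3-30 min at room temperature, scintillation counting, pIC50 derived.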

[7] = Table 15, actual oral dose 3-15 mg/kg, plasma 0.5-4 h
[8] = Table 15, actual oral dose 15-40 mg/kg, plasma 0.5-4 h

Compound	% remaining, SGF [1]	IC50 [2]	% remaining, SIF [3]	AUC [5, 7]	Cmax [5, 7]	IC50 [6]	AUC [5, 8]	Cmax ([5]; Table 15, plasma 0.5-4 h)	inhibition in vivo at 130 mg/kg/day ([4]; mean drug dose 130 mg/kg/day)	inhibition in vivo at 74 mg/kg/day ([4]; mean drug dose 74 mg/kg/day)
CCN(CC)c1ccc(NC(=O)c2cccc(C(=O)N(C)CCN3CCOCC3)c2)c(-c2cc(C(=O)NCc3cccc(C(F)(F)F)c3)ccn2)c1 [Example 25]	–	–	–	< 30 ng·h/mL	< 30 ng/mL	–	–	–	–	10 to 30%
O=C(O)c1cccc(SCc2cccc(C(=O)Nc3ccc(Cl)cc3-c3cc(C(=O)NCc4cccc(C(F)(F)F)c4)ccn3)c2)c1 [Example 8.25, 3-(3-(4-chloro-2-(4-(3-(trifluoromethyl)benzylcarbamoyl)pyridin-2-yl)phenylcarbamoyl)benzylthio)benzoic acid]	>80%	1000 to 7940 nM	>80%	> 50 ng·h/mL	< 30 ng/mL	< 1000 nM	–	–	–	–
CCN(CC)c1ccc(NC(=O)c2cccc(CSCCOCCOCCOCCOCCC(=O)N(CCO)CCO)c2)c(-c2cc(C(=O)N[C@H]3CCCc4ccccc43)ccn2)c1 [Example 160, (S)-2-(5-(diethylamino)-2-(3-(20-hydroxy-18-(2-hydroxyethyl)-17-oxo-5,8,11,14-tetraoxa-2-thia-18-azaicosyl)benzamido)phenyl)-N-(1,2,3,4-tetrahydronaphthalen-1-yl)isonicotinamide]	>80%	< 1000 nM	40-60%	< 10 ng·h/mL	< 10 ng/mL	< 1000 nM	–	–	–	–
CCN(CC)c1ccc(NC(=O)c2cccc(CSCCOCCOCCOCCOCCC(=O)NC(CO)(CO)CO)c2)c(-c2cc(C(=O)N[C@H]3CCCc4ccccc43)ccn2)c1 [Example 158, (S)-2-(5-(diethylamino)-2-(3-(20-hydroxy-19,19-bis(hydroxymethyl)-17-oxo-5,8,11,14-tetraoxa-2-thia-18-azaicosyl)benzamido)phenyl)-N-(1,2,3,4-tetrahydronaphthalen-1-yl)isonicotinamide]	>80%	< 1000 nM	20-40%	< 10 ng·h/mL	< 10 ng/mL	< 1000 nM	–	–	–	–

Continued, in another order:

% remaining, SGF [1]	IC50 [2]	% remaining, SIF [3]	AUC [5, 7]	Cmax [5, 7]	IC50 [6]	AUC [5, 8]	Cmax ([5]; Table 15, plasma 0.5-4 h)	Compound	inhibition in vivo at 130 mg/kg/day ([4]; mean drug dose 130 mg/kg/day)	inhibition in vivo at 74 mg/kg/day ([4]; mean drug dose 74 mg/kg/day)
>80%	1000 to 7940 nM	>80%	–	–	–	–	–	CN(CCOCCOCCOCCC(=O)O)C(=O)c1cccc(C(=O)Nc2ccc(Cl)cc2-c2cc(C(=O)N[C@H]3CCCc4ccccc43)ccn2)c1 [Example 237, (S)-1-(3-(4-chloro-2-(4-(1,2,3,4-tetrahydronaphthalen-1-ylcarbamoyl)pyridin-2-yl)phenylcarbamoyl)phenyl)-2-methyl-1-oxo-5,8,11-trioxa-2-azatetradecan-14-oic acid]	≤ 10%	–
>80%	1000 to 7940 nM	>80%	> 50 ng·h/mL	> 50 ng/mL	1000 to 7940 nM	–	–	CCN(CC)c1ccc(NC(=O)c2cccc(C(=O)N(C)CCN3CCC[C@H]3C(=O)NCCOCCOCCOCCOCCOCCOCCOCCOC)c2)c(-c2cc(C(=O)N[C@H]3CCCc4ccccc43)ccn2)c1 [Example 196, N^1-(2-((S)-2-(2,5,8,11,14,17,20,23-octaoxapentacosan-25-ylcarbamoyl)pyrrolidin-1-yl)ethyl)-N^3-(4-(diethylamino)-2-(4-(((S)-1,2,3,4-tetrahydronaphthalen-1-yl)carbamoyl)pyridin-2-yl)phenyl)-N-methylisophthalamide]	–	–
60-80%	< 1000 nM	>80%	–	–	< 1000 nM	< 30 ng·h/mL	< 30 ng/mL	CN(CCOCCOCCOCCC(=O)O)C(=O)Cc1cccc(SCc2cccc(C(=O)Nc3ccc(Cl)cc3-c3cc(C(=O)N[C@H]4CCCc5ccccc54)ccn3)c2)c1 [Example 239, (S)-1-(3-(3-(4-chloro-2-(4-(1,2,3,4-tetrahydronaphthalen-1-ylcarbamoyl)pyridin-2-yl)phenylcarbamoyl)benzylthio)phenyl)-3-methyl-2-oxo-6,9,12-trioxa-3-azapentadecan-15-oic acid]	–	–
>80%	< 1000 nM	>80%	< 30 ng·h/mL	< 10 ng/mL	< 1000 nM	–	–	CCN(CC)c1ccc(NC(=O)c2cccc(COCCOCCOCCOCCOCCOCCO)c2)c(-c2cc(C(=O)NCc3cccc(C(F)(F)F)c3)ccn2)c1 [Example 168, 2-(5-(diethylamino)-2-(3-(19-hydroxy-2,5,8,11,14,17-hexaoxanonadecyl)benzamido)phenyl)-N-(3-(trifluoromethyl)benzyl)isonicotinamide]	–	–
>80%	< 1000 nM	20-40%	< 10 ng·h/mL	< 10 ng/mL	< 1000 nM	–	–	CCN(CC)c1ccc(NC(=O)c2cccc(CCCOCCOCCOCCOCCC(=O)NC(CO)(CO)CO)c2)c(-c2cc(C(=O)NCc3cccc(C(F)(F)F)c3)ccn2)c1 [Example 281]	–	–
60-80%	< 1000 nM	>80%	–	–	< 1000 nM	< 10 ng·h/mL	< 10 ng/mL	O=C(O)CCOCCOCCOCCOCCCc1cccc(C(=O)Nc2ccc(Cl)cc2-c2cc(C(=O)N[C@H]3CCCc4ccccc43)ccn2)c1 [Example 253, (S)-16-(3-(4-(chloro)-2-(4-(1,2,3,4-tetrahydronaphthalen-1-ylcarbamoyl)pyridin-2-yl)phenylcarbamoyl)phenyl)-4,7,10,13-tetraoxahexadecan-1-oic acid]	–	–

Source: US20140023611A1 (priority 2010, published 2014)
